In patent US20090099199A1, “ORGANIC COMPOUNDS” (priority 2007, published 2009):
Where a name gives a salt, the structure may show the parent alone.

How the values were obtained:
[1] = target: T1, recombinant human NPY Y2 receptors (Homo sapiens, UniProt P49146); assay: Scintillation proximity [35S]GTPγS binding assay (inhibition of 0.5 nM NPY-stimulated [35S]GTPγS binding); type: biochemical; conditions: 10 μM compound, membranes from CHO-C4 cells expressing recombinant human NPY Y2 receptors, read-out: [%] inhibiton at 10 μM
T1 construct: expressed in transfected cells; host or cells: CHO-C4 cells (membrane preparation)
T1 sequence (P49146 1-381): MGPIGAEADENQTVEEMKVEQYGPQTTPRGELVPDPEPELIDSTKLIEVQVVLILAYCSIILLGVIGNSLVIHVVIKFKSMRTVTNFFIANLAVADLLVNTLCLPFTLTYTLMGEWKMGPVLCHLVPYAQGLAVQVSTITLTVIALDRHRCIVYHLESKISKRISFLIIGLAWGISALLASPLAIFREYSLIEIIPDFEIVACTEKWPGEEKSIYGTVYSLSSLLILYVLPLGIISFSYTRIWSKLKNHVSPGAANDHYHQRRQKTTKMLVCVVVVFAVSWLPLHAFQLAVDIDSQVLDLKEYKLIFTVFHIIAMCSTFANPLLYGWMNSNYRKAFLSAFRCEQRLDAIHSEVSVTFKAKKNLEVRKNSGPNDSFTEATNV
Protocol: Preparation of Membranes: CHO-C4 cells expressing recombinant human NPY Y2 receptors were used to prepare membranes for the GTPγS assay. Cells were grown to 80-95% confluency on 15-cm (225 cm^2) tissue culture plates. After aspiration of the culture medium, cells were washed twice with 18 ml ice-cold phosphate-buffered saline (PBS), scraped off and suspended in 3 ml ice-cold PBS in pre-cooled centrifuge tubes. The dishes were rinsed with 2 ml ice-cold PBS per dish and the washings were combined with the PBS cell suspension from above. Cells pooled from 5-7 dishes were centrifuged for 5 min at 10,000 rpm (12,000 g) in a Sorvall RC5B centrifuge using an SS34 rotor at 4° C. The cell pellet was resuspended in 5 ml ice-cold buffer (20 mM HEPES, 10 mM EDTA; pH 7.4) by vortexing (2-5 sec), homogenized using a Polytron (step 4 for 20-30 sec), and ice-cold buffer added to 25 ml. The suspension was centrifuged again for 20 min at 18,000 rpm (39,000 g) at 4° C. and the pellet resuspended in 5 ml ice-cold buffer (20 mM HEPES, 0.1 mM EDTA; pH 7.4) by vortexing (2-5 sec), homogenized with a Polytron (step 4 for 10 sec), and ice-cold buffer added to 25 ml. The suspension was centrifuged a third time for 20 min at 18,000 rpm (39,000 g) at 4° C. The pellet was resuspend in 1 ml ice-cold buffer (20 mM HEPES, 0.1 mM EDTA; pH 7.4) by vortexing (5-8 sec). Two to five resuspended pellets were combined and homogenized using a Polytron (step 4 for 15-25 sec). A small aliquot (20-50 μl) was removed for protein determination by the Coomassie Plus Protein Assay Reagent (Pierce) using BSA as standard. The membrane suspension was aliquoted in pre-cooled (on dry ice) Eppendorf tubes (0.25-1 ml/tube affording approximately 0.5-2 mg of membrane protein/tube). The pellets were frozen and stored at −80° C.
Scintillation proximity [^35S]GTPγS binding assay: Frozen membranes from CHO-C4 cells expressing recombinant human NPY Y2 receptors (2 mg for four 96-well plates) were thawed on ice. Thawed membranes were pipetted into 10 ml of assay buffer (20 mM HEPES, 10 mM MgCl2, 100 mM NaCl, pH 7.4) and homogenized briefly using a Polytron. The final assay mixture was prepared in 96-well microtiter plates (Isoplate Wallac, Perkin Elmer). The composition of the assay mixtures in a final volume of 250 μl per well was as follows: 20 mM HEPES, 10 mM MgCl2, 100 mM NaCl, pH 7.4, 30 μM GDP, 1 mg/ml BSA (added fresh), 5 μg membrane protein, 1.5 mg Wheatgerm agglutinin SPA beads (Amersham), 0.45 nM [^35S]GTPγS (Amersham, SJ1308. 1000 Ci/mmol, stabilized solution), and the test compounds (agonists and/or antagonists) at the appropriate concentrations. The samples were incubated at room temperature for 90 min by shaking, after which the SPA beads were sedimented by centrifugation in an Eppendorf 5804 centrifuge at 2700 rpm for 10 min at room temperature. After 60 min the plates were counted in a TopCount (Canberra). Basal [^35S]GTPγS binding was measured in the absence of agonist (NPY). Non-specific binding was measured in the presence of excess (10 μM) unlabelled GTPγS (Sigma). Nonspecific binding never exceeded 10% of basal binding and was thus not subtracted from the experimental data. Antagonists were tested for the inhibition of 0.5 nM NPY-stimulated [^35S]GTPγS binding. Antagonist inhibition curves were analyzed by non-linear regression using GraphPad Prism software (Version 4.0, GraphPad Software Inc., CA, USA).
Antagonistic activity of compounds of the present invention is examined by the Scintillation proximity [^35S]GTPγS binding assay as described above (inhibition of 0.5 nM NPY-stimulated [^35S]GTPγS binding). The table below represents percentages of inhibition at a concentration of 10 μM.

rats = conditions: icv administration (Thorsell et al. Neurosci. Lett. 2002); cited from earlier work

SMILES | inhibition at 10 µM [1] [%] | ethanol self-administration (rats)
O=C(Nc1ccc(N2CCC(C(c3ccccc3)c3ccccc3)CC2)c(F)c1)C1CCOC1 (centres unmarked) [Compound 17, Tetrahydro-furan-3-carboxylic acid [4-(4-benzhydryl-piperidin-1-yl)-3-fluoro-phenyl]-amide] | 86 | 
N=C(N)NCCC[C@H](NC(=O)CC1(CC(=O)N2CCN(C3c4ccccc4NC(=O)c4ccccc43)CC2)CCCC1)C(=O)NCCn1c(=O)n(-c2ccccc2)n(-c2ccccc2)c1=O (some centres unmarked) [BIIE0246] |  | dose dependently reduced ethanol self-administration
CCC(CC)c1nc2cc(N3CCN(C(c4ccccc4)c4ccccc4)CC3)c(F)cc2[nH]1 [Compound 19, 5-(4-Benzhydryl-piperazin-1-yl)-2-(1-ethyl-propyl)-6-fluoro-1H-benzoimidazole] | 82 | 
Cc1noc(C)c1C(=O)Nc1ccc(N2CCN(C(c3ccccc3)c3ccccc3)CC2)c(F)c1 [Compound 9, 3,5-Dimethyl-isoxazole-4-carboxylic acid [4-(4-benzhydryl-piperazin-1-yl)-3-fluoro-phenyl]-amide] | 85 | 
Cc1noc(C)c1NC(=O)Nc1ccc(N2CCN(C(c3ccc(F)cc3)c3ccc(F)cc3)CC2)c(C#N)c1 [Compound 7] | 87 | 
N#Cc1cc(NC(=O)C2CCOC2)ccc1N1CCN(C(c2ccccc2)c2ccccc2)CC1 (centres unmarked) [Compound 2, Tetrahydro-furan-3-carboxylic acid [4-(4-benzhydryl-piperazin-1-yl)-3-cyano-phenyl]-amide] | 89 | 
Cc1noc(C)c1NC(=O)Nc1ccc(N2CCN(C(c3ccccc3)c3ccccc3)CC2)c(C#N)c1 [Compound 1, 1-[4-(4-Benzhydryl-piperazin-1-yl)-3-cyano-phenyl]-3-(3,5-dimethyl-isoxazol-4-yl)-urea] | 95 | 
Cc1noc(C)c1Nc1nc2cc(N3CCN(C(c4ccccc4)c4ccccc4)CC3)c(F)cc2[nH]1 [Compound 22, [5-(4-Benzhydryl-piperazin-1-yl)-6-fluoro-1H-benzoimidazol-2-yl]-(3,5-dimethyl-isoxazol-4-yl)-amine triluoroacetate salt] | 71 | 
Cc1noc(C)c1NC(=O)Nc1ccc(N2CCC(C(c3ccccc3)c3ccccc3)CC2)c(C#N)c1 [Compound 13] | 91 | 
CCC(CC)Nc1nc2cc(N3CCN(C(c4ccccc4)c4ccccc4)CC3)c(F)cc2[nH]1 [Compound 23, 5-(4-Benzhydryl-piperazin-1-yl)-6-fluoro-1H-benzoimidazol-2-yl]-(1-ethyl-propyl)-amine triluoroacetate salt] | 72 | 
Fc1cc2[nH]c(C3CCOC3)nc2cc1N1CCN(C(c2ccccc2)c2ccccc2)CC1 (centres unmarked) [Compound 20, 5-(4-Benzhydryl-piperazin-1-yl)-6-fluoro-2-(tetrahydro-furan-3-yl)-1H-benzoimidazole] | 53 | 
Cn1cccc1C(=O)Nc1ccc(N2CCN(C(c3ccccc3)c3ccccc3)CC2)c(F)c1 [Compound 11, 1-Methyl-1H-pyrrole-2-carboxylic acid [4-(4-benzhydryl-piperazin-1-yl)-3-fluoro-phenyl]-amide] | 62 | 
Cc1noc(C)c1NC(=O)Nc1ccc(N2CCN(C(c3ccc(F)cc3)c3ccc(F)cc3)CC2)c(F)c1 [Compound 8, 1-(4-{4-[Bis-(4-fluoro-phenyl)-methyl]-piperazin-1-yl}-3-fluoro-phenyl)-3-(3,5-dimethyl-isoxazol-4-yl)-urea] | 86 | 
Cc1noc(C)c1NC(=O)Nc1ccc(N2CCC(C(c3ccccc3)c3ccccc3)CC2)c(F)c1 [Compound 16, 1-[4-(4-Benzhydryl-piperidin-1-yl)-3-fluoro-phenyl]-3-(3,5-dimethyl-isoxazol-4-yl)-urea] | 90 | 
Cc1noc(C)c1-c1nc2cc(N3CCN(C(c4ccccc4)c4ccccc4)CC3)c(F)cc2[nH]1 [Compound 21, 5-(4-Benzhydryl-piperazin-1-yl)-2-(3,5-dimethyl-isoxazol-4-yl)-6-fluoro-1H-benzoimidazole] | 44 | 
N#Cc1cc(NC(=O)C2CCOC2)ccc1N1CCC(C(c2ccccc2)c2ccccc2)CC1 (centres unmarked) [Compound 14, Tetrahydro-furan-3-carboxylic acid [4-(4-benzhydryl-piperidin-1-yl)-3-cyano-phenyl]-amide] | 90 | 

Continued, in another order:

inhibition at 10 µM [1] [%] | SMILES | ethanol self-administration (rats)
85 | Cc1ncccc1C(=O)Nc1ccc(N2CCN(C(c3ccccc3)c3ccccc3)CC2)c(F)c1 [Compound 10, N-[4-(4-Benzhydryl-piperazin-1-yl)-3-fluoro-phenyl]-2-methyl-nicotinamide] | 
85 | O=C(Nc1ccc(N2CCN(C(c3ccccc3)c3ccccc3)CC2)c(F)c1)C1CCOC1 (centres unmarked) [Compound 5] | 
86 | CCC(CC)C(=O)Nc1ccc(N2CCC(C(c3ccccc3)c3ccccc3)CC2)c(C#N)c1 [Compound 15, N-[4-(4-Benzhydryl-piperidin-1-yl)-3-cyano-phenyl]-2-ethyl-butyramide] | 
89 | Cc1noc(C)c1NC(=O)Nc1ccc(N2CCN(C(c3ccccc3)c3ccccc3)CC2)c(F)c1 [Compound 4, 1-[4-(4-Benzhydryl-piperazin-1-yl)-3-fluoro-phenyl]-3-(3,5-dimethyl-isoxazol-4-yl)-urea] | 
95 | CCC(CC)C(=O)Nc1ccc(N2CCC(C(c3ccccn3)c3ccccn3)CC2)c(F)c1 [Compound 24, N-{4-[4-(Di-pyridin-2-yl-methyl)-piperidin-1-yl]-3-fluoro-phenyl}-2-ethyl-butyramide] | 
65 | Cn1nccc1C(=O)Nc1ccc(N2CCN(C(c3ccccc3)c3ccccc3)CC2)c(F)c1 [Compound 12, 2-Methyl-2H-pyrazole-3-carboxylic acid [4-(4-benzhydryl-piperazin-1-yl)-3-fluoro-phenyl]-amide] | 
88 | CCC(CC)C(=O)Nc1ccc(N2CCN(C(c3ccccc3)c3ccccc3)CC2)c(C#N)c1 [Compound 3, N-[4-(4-Benzhydryl-piperazin-1-yl)-3-cyano-phenyl]-2-ethyl-butyramide] | 
85 | CCC(CC)C(=O)Nc1ccc(N2CCC(C(c3ccccc3)c3ccccc3)CC2)c(F)c1 [Compound 18, N-[4-(4-Benzhydryl-piperidin-1-yl)-3-fluoro-phenyl]-2-ethyl-butyramide] | 
89 | CCC(CC)C(=O)Nc1ccc(N2CCN(C(c3ccccc3)c3ccccc3)CC2)c(F)c1 [Compound 6] | 
90 | CCC(CC)C(=O)Nc1ccc(N2CCN(C(c3ccccn3)[C@H]3CCCO3)CC2)c(F)c1 (stereo partly drawn) [Compound 25, 2-Ethyl-N-{3-fluoro-4-[4-((R)-pyridin-2-yl-tetrahydro-furan-2-yl-methyl)-piperazin-1-yl]-phenyl}-butyramide] | 
